Source: publication PMC8650031, “Santin and cirsimaritin from Betula pubescens and Betula pendula buds induce apoptosis in human digestive system cancer cells” (Journal of Cellular and Molecular Medicine, 2021)

Experiments:
HepG2 cells [1] = assay: [3H]-thymidine incorporation (DNA biosynthesis), HepG2; format: cell-based, human; conditions: HepG2, 50 μM, 48 h
Procedure: (§1) Cells were plated in 24‐well plates at 4 × 10^4 cells per well and allowed to adhere for 24 h. Cells were treated with the various concentrations of flavonoids (25, 50 and 100 μM) in 1 mL medium containing 0.5 μCi [^3H]‐thymidine (#MT6037, Hartmann Analytic, Germany) for 48 h. Medium was discarded, and cells were rinsed three times with phosphate buffered saline (PBS), and solubilized with 1 mL of 0.1 M sodium hydroxide containing 1% sodium dodecyl sulphate. Then, 9 mL of scintillation liquid (PerkinElmer, USA) was added, and radioactivity incorporated into DNA was measured using a scintillation counter.

[2] = test system: gastric adenocarcinoma AGS cells; assay: MTT cell viability assay, AGS cells; format: cell-based, human; conditions: for IC50: Homo sapiens, MTT; for reduction in viability: 100 μM
Procedure: (§2) Viability of cells was determined using the MTT assay. Cells were plated in 96‐well plates at 1 × 10^4 cells per well and allowed to adhere for 24 h. […] MTT (3‐(4,5‐Dimethyl‐2‐thiazolyl)‐2,5‐diphenyl‐2H‐tetrazolium bromide, Sigma‐Aldrich, USA) solution was added to each well, and cells were incubated at 37°C for 4 h. The medium was then removed, and formazan crystals were dissolved in 100 μL of DMSO and 12.5 μL of Sorensen's glycine buffer on a plate shaker. Absorbance was measured at 570 nm using a microplate reader. IC50 values were calculated using GraphPad Prism software.

[3] = test system: hepatocellular carcinoma HepG2 cells; assay: MTT cell viability assay, HepG2 cells; format: cell-based, human; conditions: for IC50: Homo sapiens, MTT; for reduction in viability: HepG2, 100 μM
Procedure: as §2

AGS cells [4] = assay: [3H]-thymidine incorporation (DNA biosynthesis), AGS; format: cell-based, human; conditions: 50 μM, 48 h
Procedure: as §1

DLD‐1 cells [5] = assay: Colony formation assay, DLD-1; format: cell-based, human; conditions: 48 h treatment then 7 days culture
Procedure: (§3) 2.5. Colony formation assay
(§4) In total, 250 cells were plated in each well of 12-well plates and allowed to adhere for 24 h.
(§5) Cells were treated with various concentrations of flavonoids (3.125, 6.25, 12.5, 25, 50 and 100 μM) for 48 h. Medium was discarded and fresh medium was added. After seven days, culture medium was removed and cells were washed once with PBS. Then, cells were fixed with 4% formaldehyde and stained with 0.1% crystal violet. […]

HepG2 cells [6] = assay: Colony formation assay, HepG2; format: cell-based, human; conditions: 48 h treatment then 7 days culture
Procedure: as §3, §4, §5

p53 in DLD‐1 cells = assay: p53 expression by Western blot and fluorescence microscopy, DLD-1; format: cell-based, human; conditions: DLD-1, 48 h treatment
Procedure: (§6) Cells were seeded at a density of 1 × 10^5 cells per well in 6-well plates and allowed to adhere for 24 h. Cells were treated with various concentrations of flavonoids (12.5, 25, 50 and 100 […]
(§7) Adherent and floating cells were harvested and sonicated. Obtained homogenates were supplemented with 1% protease and phosphatase inhibitor cocktail (#78440, Thermo Fisher Scientific, USA). A Lowry assay was performed to quantify protein content in the homogenates. Proteins (20–40 μg) were resolved on 7.5%, 10% or 12% SDS-PAGE gels using the Mini-Protean Tetra system (Bio-Rad, USA). Proteins were transferred to nitrocellulose membranes (Bio-Rad, USA) using the Mini Trans-Blot Cell wet blotting system (Bio-Rad, USA). Membranes were blocked with 5% skim milk for 1 hour at room temperature and probed overnight at 4 °C with primary antibodies. The following antibodies […]
(§8) 1:1000), purchased from Cell Signaling Technology (USA); anti-p53 antibody (#sc-126, […]
(§9) 1:500) obtained from Santa Cruz Biotechnology (USA); and anti-actin antibody (#A2066, 1:2000) purchased from Sigma-Aldrich (USA). After extensive washes, a secondary antibody solution in 5% skim milk (anti-mouse IgG-HRP, Sigma-Aldrich, #A9044, 1:5000; anti-rabbit IgG-HRP, Sigma-Aldrich, #A9169, 1:5000) was added for 1 h at room temperature.
(§10) Membranes were incubated with ECL-HRP substrate (GE Healthcare, USA) and the signal was detected using the BioSpectrum Imaging System (Ultra-Violet Products, Ltd., UK).
(§11) 2.8. Immunofluorescence microscopy
(§12) Cells were plated in 96-well plates at 1 × 10^4 cells per well and allowed to adhere for 24 h.
(§13) Cells were treated with the respective concentration of flavonoids and incubated for 48 h. […]
(§14) The mass spectrometric detector was calibrated by analyzing flavonoid solutions in the concentration range 0.06‒2.0 mg/ml in the mode of selective monitoring of the most intense ions (M+ ‒ CH3) in the spectra of TMS derivatives of the determined components (Table S1).

AGS cells [7] = assay: Colony formation assay, AGS; format: cell-based, human; conditions: 48 h treatment then 7 days culture; for decrease in number of colonies: 12.5 μM
Procedure: as §3, §4, §5

p53 in AGS cells = assay: p53 expression by Western blot and fluorescence microscopy, AGS; format: cell-based, human; conditions: 48 h treatment
Procedure: as §6, §7, §8, §9, §10, §11, §12, §13, §14

HepG2 cells [8] = assay: Annexin V/propidium iodide apoptosis assay, HepG2; format: cell-based, human; conditions: 48 h
Procedure: (§15) Cells were seeded at a density of 1 × 10^5 cells per well in 6-well plates and allowed to adhere for 24 h. Cells were treated with various concentrations of flavonoids (12.5, 25, 50 and 100 μM) for 48 h. Floating and adherent cells were collected and assayed using a Dead Cell Apoptosis Kit with annexin V-fluorescein isothiocyanate (FITC) and propidium iodide (PI), for flow cytometry (#V13242, Thermo Fisher Scientific, USA), according to the manufacturer’s protocol. Briefly, cells were dispersed in 100 μL annexin-binding buffer containing 5 μL annexin V-FITC conjugate solution, 1 μg/mL PI and 1 μg/mL Hoechst 33342, and incubated for 15 min at room temperature. Then 400 μL of annexin-binding buffer was added, and the cell suspension was transferred to 96-well plates and visualised using fluorescence microscopy on a BD Pathway 855 system (Becton Dickinson, USA). Early […]
(§16) red and blue fluorescence. […]

[9] = test system: normal human skin fibroblasts (CCD25Sk); assay: MTT cell viability assay, normal fibroblasts; format: cell-based; conditions: Skin fibroblast
Procedure: as §2

DLD‐1 cells [10] = assay: [3H]-thymidine incorporation (DNA biosynthesis), DLD-1; format: cell-based, human; conditions: DLD-1, 50 μM, 48 h
Procedure: as §1

DLD‐1 cells [11] = assay: Annexin V/propidium iodide apoptosis assay, DLD-1; format: cell-based, human; conditions: 48 h
Procedure: as §15, §16

[12] = test system: colorectal adenocarcinoma DLD‐1 cells; assay: MTT cell viability assay, DLD-1 cells; format: cell-based, human; conditions: for IC50: Homo sapiens, MTT; for reduction in viability: DLD-1, 100 μM
Procedure: as §2

p53 in HepG2 cells = assay: p53 expression by Western blot and fluorescence microscopy, HepG2; format: cell-based, human; conditions: HepG2, 48 h treatment
Procedure: as §6, §7, §8, §9, §10, §11, §12, §13, §14

AGS cells [13] = assay: Annexin V/propidium iodide apoptosis assay, AGS; format: cell-based, human; conditions: 48 h
Procedure: as §15, §16

IC50 ([2]; 48 h) [µM]	IC50 ([2]; 72 h) [µM]	IC50 ([12]; DLD-1, 48 h) [µM]	Structure (SMILES)	reduction of [3H]-thymidine incorporation (HepG2 cells [1]) [%]	reduction of [3H]-thymidine incorporation (AGS cells [4]) [%]	p53 level (p53 in DLD‐1 cells)	p53 level (p53 in AGS cells)	IC50 ([9]; 24 h) [µM]	IC50 ([9]; 48 h) [µM]	IC50 ([9]; 72 h) [µM]	reduction of [3H]-thymidine incorporation (DLD‐1 cells [10]) [%]	p53 level (p53 in HepG2 cells)	other results
17.1 ± 0.8	13.9 ± 1.2	28 ± 1.3	COc1ccc(-c2oc3cc(O)c(OC)c(O)c3c(=O)c2OC)cc1 [santin]	74.9	48.0	decreased	increased significantly	> 50	> 50	> 50	35.0	increased significantly	IC50 ([2]; 24 h): > 50 µM; IC50 ([3]; HepG2, 24 h): > 50 µM; IC50 ([3]; HepG2, 48 h): 19.8 ± 0.9 µM; IC50 ([3]; HepG2, 72 h): 22.7 ± 1.6 µM; decrease in number of colonies (DLD‐1 cells [5]; DLD-1, 6.25 μM): 60%; decrease in colony numbers (HepG2 cells [6]; HepG2, 3.125 μM): 65.8%; decrease in colony numbers (AGS cells [7]; 3.125 μM): 77.4%; percentage of cells in the early stage of apoptosis (HepG2 cells [8]; HepG2, 12.5 μM): 36.6%; percentage of cells in the late stage of apoptosis (HepG2 cells [8]; HepG2, 12.5 μM): 16.1%; percentage of cells in the early stage of apoptosis (DLD‐1 cells [11]; DLD-1, 12.5 μM): 54.8%; percentage of cells in the late stage of apoptosis (DLD‐1 cells [11]; DLD-1, 12.5 μM): 6.7%; IC50 ([12]; DLD-1, 24 h): > 50 µM; IC50 ([12]; DLD-1, 72 h): 36.5 ± 2.5 µM; percentage of cells in the early stage of apoptosis (AGS cells [13]; 12.5 μM): 65.8%; percentage of cells in the late stage of apoptosis (AGS cells [13]; 12.5 μM): 7.6%
18.2 ± 1.3	23.4 ± 1.4	43.6 ± 2	O=c1cc(-c2ccc(O)cc2)oc2cc(O)cc(O)c12 [apigenin, reference compound]	85.4	56.2	up‐regulated	up‐regulated	> 50	> 50	> 50	17.7	up‐regulated	IC50 ([2]; 24 h): > 50 µM; IC50 ([3]; HepG2, 24 h): > 50 µM; IC50 ([3]; HepG2, 48 h): > 50 µM; IC50 ([3]; HepG2, 72 h): 37.9 ± 2.9 µM; decrease in number of colonies (DLD‐1 cells [5]; DLD-1, 12.5 μM): 23.5%; decrease in number of colonies (HepG2 cells [6]; HepG2, 12.5 μM): 61.8%; decrease in number of colonies (AGS cells [7]): 13.2%; percentage of cells in the early stage of apoptosis (HepG2 cells [8]; HepG2, 50 μM): 20.5%; percentage of cells in the late stage of apoptosis (HepG2 cells [8]; HepG2, 50 μM): 12.3%; percentage of cells in the early stage of apoptosis (DLD‐1 cells [11]; DLD-1, 50 μM): 29.7%; percentage of cells in the late stage of apoptosis (DLD‐1 cells [11]; DLD-1, 50 μM): 9.4%; IC50 ([12]; DLD-1, 24 h): > 50 µM; IC50 ([12]; DLD-1, 72 h): > 50 µM; percentage of cells in the early stage of apoptosis (AGS cells [13]; 50 μM): 71.2%; percentage of cells in the late stage of apoptosis (AGS cells [13]; 50 μM): 9.6%
49.3 ± 3.3	44.5 ± 3.1	49.3 ± 2.5	COc1ccc(-c2oc3cc(O)cc(O)c3c(=O)c2OC)cc1 [ermanin]	85.2	28.2	–	–	–	–	–	29.1	–	reduction in viability ([2]; 48 h): over 80%; reduction in viability ([2]; 72 h): over 80%; reduction in viability ([3]; 48 h): over 80%; reduction in viability ([3]; 72 h): over 80%; reduction in viability ([12]; 48 h): over 80%; reduction in viability ([12]; 72 h): over 80%
–	–	–	COc1cc(O)c2c(=O)c(OC)c(-c3ccc(O)cc3)oc2c1 [kumatakenin]	–	–	–	–	–	–	41.6 ± 3.5	–	–	–
–	28.4 ± 2.5	–	O=c1c(O)c(-c2ccc(O)c(O)c2)oc2cc(O)cc(O)c12 [quercetin]	–	–	–	–	–	–	–	–	–	–
–	–	–	COc1ccc(-c2cc(=O)c3c(O)cc(OC)cc3o2)cc1 [apigenin−7,4'‐O‐dimethyl ether, apigenin 7,4'‐O‐dimethyl ether]	–	–	–	–	23.6 ± 2.2	12.9 ± 0.5	19.7 ± 1.3	–	–	–
31.7 ± 2.4	17.1 ± 1.4	–	COc1cc2oc(-c3ccc(O)cc3)cc(=O)c2c(O)c1OC [cirsimaritin]	53.6	24.5	decreased	increased significantly	> 50	> 50	> 50	10.0	increased significantly	decrease in number of colonies (AGS cells [7]): 75.7%; percentage of cells in the early stage of apoptosis (HepG2 cells [8]; HepG2, 50 μM): 51.2%; percentage of cells in the late stage of apoptosis (HepG2 cells [8]; HepG2, 50 μM): 5.4%; percentage of cells in the early stage of apoptosis (DLD‐1 cells [11]; DLD-1, 50 μM): 51.5%; percentage of cells in the late stage of apoptosis (DLD‐1 cells [11]; DLD-1, 50 μM): 15.5%; percentage of cells in the early stage of apoptosis (AGS cells [13]; 50 μM): 37.0%; percentage of cells in the late stage of apoptosis (AGS cells [13]; 50 μM): 7.4%
